Reference: US7109193B2, “Tricyclic diazepines tocolytic oxytocin receptor antagonists” (Wyeth, priority 2001, dated 2006)

Biological target: T1, human oxytocin receptor (Homo sapiens, UniProt P30559)
T1 construct: host or cells: CHO cells (pcDNA3.1 vector)
T1 sequence (P30559 1-389): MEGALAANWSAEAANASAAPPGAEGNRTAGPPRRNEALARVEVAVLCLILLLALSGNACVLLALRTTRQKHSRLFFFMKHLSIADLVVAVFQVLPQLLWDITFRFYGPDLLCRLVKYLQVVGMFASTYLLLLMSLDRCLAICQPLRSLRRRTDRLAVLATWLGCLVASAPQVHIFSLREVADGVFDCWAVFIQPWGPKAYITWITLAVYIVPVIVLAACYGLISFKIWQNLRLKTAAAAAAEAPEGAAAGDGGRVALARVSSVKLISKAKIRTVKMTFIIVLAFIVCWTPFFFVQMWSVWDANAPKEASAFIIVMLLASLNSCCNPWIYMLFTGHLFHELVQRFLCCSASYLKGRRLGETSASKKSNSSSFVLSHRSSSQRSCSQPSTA
Test: Oxytocin binding in Chinese Hamster Ovary cell membranes expressing human oxytocin receptors
Conditions: 100 nM, CHO cell membranes, [3H]oxytocin, values without parentheses; for inhibition at 0.1 µM: read-out: OT % inhibition @ 100% nM
Procedure: Oxytocin Binding in Chinese Hamster Ovary Cell Membranes Expressing Human Oxytocin Receptors
The trypsin is removed by aspiration and the cells dislodged by tapping. Cell Culture medium (e.g. 30 mL for 1:30 split) is immediately added and mixed well to inactivate trypsin. 1 mL of detached cells is added to new culture flasks containing fresh Cell Culture medium (e.g. into 25 mL per T-150 flask), and mixed gently. The cells are incubated at 37° C. in 5% CO2. The medium is changed at 3 to 4 days interval (or as appropriate). […] All steps are done under sterile conditions. B. Membrane Preparation: The cells are washed twice gently with Hank's Balanced Salt solution (e.g., use 10 mL per T-150 flask). […] The contents are transferred to centrifuge tubes (50 mL size) kept in ice bath. All subsequent steps are done at 4° C. The tubes are centrifuged at 300×g for 15 min (1380 rpm on SORVAL, Model RT6000D, using rotor for 50 mL tubes). The supernatant is discarded and the cells suspended in homogenizing buffer (10 mM Tris-HCl containing 0.25 M sucrose and 1 mM EDTA, pH 7.4) ensuring that the volume of the buffer is about ten times the volume of the cell pellet. The cells are pooled into a centrifuge tube (50 mL) and homogenized with a Polytron at setting 6 for 10 sec. The homogenate is transferred into a Potter-Elvjehm homogenizer and homogenized with 3 strokes. The homogenate is centrifuged at 1500×g for 10 min at 4° C. (3100 rpm using SORVAL, model RT6000D, using rotor for 50 mL tubes). The pellet is discarded. The supernatant is centrifuged at 100,000×g for 60 min. at 4° C. (Beckman L8-80M ultracentrifuge; spin at 37,500 rpm with rotor type 70 Ti for 50 mL tubes; 38,000 rpm with type 80Ti for 15 mL tubes; or 35,800 rpm with rotor type 45Ti). The supernantant is discarded and the pellet suspended in 3 to 4 mL of Tris buffer (50 mM TRIS-HCl, pH 7.4). The protein content is estimated by the Bradford or Lowry method. The volume of the membrane suspension is adjusted with the membrane buffer (50 mM Tris-HCl containing 0.1% BSA and 0.1 mM PMSF) to give 3.0 mg/mL (or as appropriate) of protein. The membranes are aliquoted and stored at −70° C. C. Radioligand Binding Assay: In wells of a 96-well format microtiter plate, is added 90, 110 or 130 μL (to make up a final volume of 200 μL) of assay buffer containing 50 mM of Tris-HCl (pH 7.4), […], 1 mg % aprotinin, 1 mg % leupeptin, 2 mg % 1,10-phenanthroline, 10 mg % trypsin inhibitor, and 0.1 mM PMSF. The inhibitors are added on the day of the experiment. The components are mixed at room temperature, and then kept in ice bath following adjustment of the pH to 7.4. […] For oxytocin and other peptide ligands, 20 μL of 50% DMSO is added and the assay buffer volume is adjusted accordingly. To each well is added 50 μL of frozen membrane suspension thawed immediately prior to use and diluted in assay buffer to the required concentration (equivalent to 25 to 50 μg of protein/well as needed). 20 μL of 8 nM [^3H]oxytocin in the assay buffer, prepared just before use is added and incubated at room temperature for 60 min. shaking the plate on a mechanical shaker for the first 15 min. The incubation is stopped by rapid filtration of the plate contents followed by washing with ice-cold buffer (50 mM Tris-HCl, pH 7.4) using a cell harvester (Tomtek and Printed filtermat-B filter paper). The filter paper is thoroughly dried (7–12 min. in a microwave oven) and impregnated with MeltiLex B/H melt-on scintillation wax sheets and the radioactivity counted in a betaplate scintillation counter.
Binding data is either reported as percent inhibition at a certain concentration or if an IC50 was calculated, as a nanomolar concentration.

| SMILES | inhibition at 0.1 µM | OT % inhibition @ 100% nM |
| --- | --- | --- |
| COc1cc(C(=O)N2Cc3ccc(C(=O)NCCN4CCCCC4)n3Cc3ccccc32)ccc1-c1ccccc1C [Example 154, 10-[(2-Methoxy-2′-methyl[1,1′-biphenyl]4-yl)carbonyl]-N-[2-(1-piperidinyl)ethyl]-10,11-dihydro-5H-pyrrolo[2,1-c][1,4]benzodiazepine-3-carboxamide] | 54% | – |
| O=C(c1ccc2n1Cc1ccccc1N(C(=O)c1ccc(-c3cccc4ccccc34)cc1Cl)C2)N1CCC(N2CCCCC2)CC1 [Example 121] | – | 0% |
| Cc1ccccc1-c1ccc(C(=O)N2Cc3ccc(C(=O)N4CCC(N5CCCC5)CC4)n3Cc3ccccc32)cc1C [Example 138, {10-[(2,2′-Dimethyl[1,1′-biphenyl]-4-yl)carbonyl]-10,11-dihydro-5H-pyrrolo[2,1-c][1,4]benzodiazepin-3-yl}[4-(1-pyrrolidinyl)-1-piperidinyl]methanone] | 95% | – |
| COc1ccccc1-c1ccc(C(=O)N2Cc3ccc(C(=O)NCCCn4ccnc4)n3Cc3ccccc32)cc1C [Example 123, N-[3-(1H-Imidazol-1-yl)propyl]-10-[(2′-methoxy-2-methyl[1,1′-biphenyl]-4-yl)carbonyl]-10,11-dihydro-5H-pyrrolo[2,1-c][1,4]benzodiazepine-3-carboxamide] | 47% | – |
| COc1cccc(-c2ccc(C(=O)N3Cc4ccc(C(=O)N5CCC(N6CCCCC6)CC5)n4Cc4ccccc43)cc2OC)c1 [Example 120, {10-[(2,3′-Dimethoxy-[1,1′-biphenyl]-4-yl)carbonyl]-10,11-dihydro-5H-pyrrolo[2,1-c][1,4]benzodiazepin-3-yl}[4-(1-piperidinyl)-1-piperidinyl]methanone] | 69% | – |
| COc1cc(-c2ccccc2C)c(Cl)cc1C(=O)N1Cc2ccc(C(=O)N3CCC[C@H]3CN3CCCC3)n2Cc2ccccc21 [Example 267, {10-[(6-Chloro-3-methoxy-2′-methyl[1,1′-biphenyl]-4-yl)carbonyl]-10,11-dihydro-5H-pyrrolo[2,1-c][1,4]benzodiazepin-3-yl}[(2S)-2-(1-pyrrolidinylmethyl)pyrrolidinyl]methanone] | – | 93% |
| Cc1ccccc1-c1ccc(C(=O)N2Cc3ccc(C(=O)NCCN4CCCCC4)n3Cc3ccccc32)cc1 [Example 153, 10-[(2′-Methyl[1,1′-biphenyl]-4-yl)carbonyl]-N-[2-(1-piperidinyl)ethyl]-10,11-dihydro-5H-pyrrolo[2,1-c][1,4]benzodiazepine-3-carboxamide] | 60% | – |
| Cc1ccccc1-c1ccc(C(=O)N2Cc3ccc(C(=O)NCCCn4ccnc4)n3Cc3ccccc32)cc1C [Example 124, 10-[(2,2′-Dimethyl[1,1′-biphenyl]-4-yl)carbonyl]-N-[3-(1H-imidazol-1-yl)propyl]-10,11-dihydro-5H-pyrrolo[2,1-c][1,4]benzodiazepine-3-carboxamide] | 60% | – |
| COc1cccc(-c2ccc(C(=O)N3Cc4ccc(C(=O)N5CCN(CCN(C)C)CC5)n4Cc4ccccc43)cc2C)c1 [Example 199, {4-[2-(Dimethylamino)ethyl]-1-piperazinyl{}10-[(3′-methoxy-2-methyl[1,1′-biphenyl]-4-yl)carbonyl]-10,11-dihydro-5H-pyrrolo[2,1-c][1,4]benzodiazepin-3-yl}methanone] | – | 84% |
| COc1cccc(-c2ccc(C(=O)N3Cc4ccc(C(=O)NCCCn5ccnc5)n4Cc4ccccc43)cc2OC)c1 [Example 133, 10-[(2,3′-Dimethoxy[1,1′-biphenyl]4-yl)carbonyl]-N-[3-(1H-imidazol-1-yl)propyl]-10,11-dihydro-5H-pyrrolo[2,1-c][1,4]benzodiazepine-3-carboxamide] | 46% | – |
| COc1ccccc1-c1ccc(C(=O)N2Cc3ccc(C(=O)NCCCn4ccnc4)n3Cc3ccccc32)cc1 [Example 126, N-[3-(1H-Imidazol-1-yl)propyl]-10-[(2′-methoxy[1,1′-biphenyl]-4-yl)carbonyl]-10,11-dihydro-5H-pyrrolo[2,1-c][1,4]benzodiazepine-3-carboxamide] | 43% | – |
| CN(C)[C@@H]1CCN(C(=O)c2ccc3n2Cc2ccccc2N(C(=O)c2ccc(-c4cccc5ccccc45)cc2Cl)C3)C1 [Example 277, {10-[2-Chloro-4-(1-naphthyl)benzoyl]-10,11-dihydro-5H-pyrrolo[2,1-c][1,4]benzodiazepin-3-yl}[(3R)-3-(dimethylamino)pyrrolidinyl]methanone] | – | 41% |
| COc1cccc(-c2ccc(C(=O)N3Cc4ccc(C(=O)NCCN5CCCCC5)n4Cc4ccccc43)cc2C)c1 [Example 151, 10-[(3′-Methoxy-2-methyl[1,1′-biphenyl]-4-yl)carbonyl]-N-[2-(1-piperidinyl)ethyl]-10,11-dihydro-5H-pyrrolo[2,1-c][1,4]benzodiazepine-3-carboxamide] | 47% | – |
| COc1cc(C(=O)N2Cc3ccc(C(=O)N4CCC[C@H]4CN4CCCC4)n3Cc3ccccc32)ccc1-n1c(C)ccc1C [Example 321, {10-[4-(2,5-Dimethyl-1H-pyrrol-1-yl)-3-methoxybenzoyl]-10,11-dihydro-5H-pyrrolo[2,1-c][1,4]benzodiazepin-3-yl}[(2S)-2-(1-pyrrolidinylmethyl)pyrrolidinyl]methanone] | – | 62% |
| COc1cc2c(cc1OC)N(C(=O)c1ccc(-c3ccccc3C(F)(F)F)c(C)c1)Cc1ccc(C(=O)N3CCC(=O)CC3)n1C2 [Example 14, 7,8-Dimethoxy-10-{[2-methyl-2′-(trifluoromethyl)-[1,1′-biphenyl]-4-yl]carbonyl}-[(10,11-dihydro-5H-pyrrolo[2,1-c][1,4]benzodiazepin-3-yl)carbonyl]-4-piperidinone] | – | 9% |
| COc1cccc(-c2ccc(C(=O)N3Cc4ccc(C(=O)N5CCC(N6CCCCC6)CC5)n4Cc4ccccc43)cc2C)c1 [Example 114, {10-[(2-Methyl-3′-methoxy[1,1′-biphenyl]-4-yl)carbonyl]-10,11-dihydro-5H-pyrrolo[2,1-c][1,4]benzodiazepin-3-yl}[4-(1-piperidinyl)-1-piperidinyl]methanone] | 76% | – |
| COc1cccc(-c2ccc(C(=O)N3Cc4ccc(C(=O)NCCCn5ccnc5)n4Cc4ccccc43)cc2C)c1 [Example 125, N-[3-(1H-Imidazol-1-yl)propyl]-10-[(3′-methoxy-2-methyl[1,1′-biphenyl]-4-yl)carbonyl]-10,11-dihydro-5H-pyrrolo[2,1-c][1,4]benzodiazepine-3-carboxamide] | 36% | – |
| COc1cccc(-c2cc(OC)c(C(=O)N3Cc4ccc(C(=O)N5CCC[C@H]5CN5CCCC5)n4Cc4ccccc43)cc2Cl)c1 [Example 268, {10-[(6-Chloro-3,3′-dimethoxy[1,1′-biphenyl]-4-yl)carbonyl]-10,11-dihydro-5H-pyrrolo[2,1-c][1,4]benzodiazepin-3-yl}[(2S)-2-(1-pyrrolidinylmethyl)pyrrolidinyl]methanone] | – | 90% |
